Legend:
[1] = Lipophilicity, log D of the compound at pH 7.4; conditions: buffer
[2] = Clearance in human hepatic microsomes assessed per mg protein at 1 uM after 20 mins by HPLC analysis; format: ADME, Microsome; conditions: liver microsomes, read-out: CLH
Acetyl-CoA carboxylase 2 = Acetyl-CoA carboxylase 2 (Homo sapiens, UniProt O00763); assay: Inhibition of human ACC2 using acetyl-coA as substrate incubated for 60 mins prior to substrate addition measured after 20 mins by malachite green assay
Acetyl-CoA carboxylase 2, sequence (O00763 whole entry): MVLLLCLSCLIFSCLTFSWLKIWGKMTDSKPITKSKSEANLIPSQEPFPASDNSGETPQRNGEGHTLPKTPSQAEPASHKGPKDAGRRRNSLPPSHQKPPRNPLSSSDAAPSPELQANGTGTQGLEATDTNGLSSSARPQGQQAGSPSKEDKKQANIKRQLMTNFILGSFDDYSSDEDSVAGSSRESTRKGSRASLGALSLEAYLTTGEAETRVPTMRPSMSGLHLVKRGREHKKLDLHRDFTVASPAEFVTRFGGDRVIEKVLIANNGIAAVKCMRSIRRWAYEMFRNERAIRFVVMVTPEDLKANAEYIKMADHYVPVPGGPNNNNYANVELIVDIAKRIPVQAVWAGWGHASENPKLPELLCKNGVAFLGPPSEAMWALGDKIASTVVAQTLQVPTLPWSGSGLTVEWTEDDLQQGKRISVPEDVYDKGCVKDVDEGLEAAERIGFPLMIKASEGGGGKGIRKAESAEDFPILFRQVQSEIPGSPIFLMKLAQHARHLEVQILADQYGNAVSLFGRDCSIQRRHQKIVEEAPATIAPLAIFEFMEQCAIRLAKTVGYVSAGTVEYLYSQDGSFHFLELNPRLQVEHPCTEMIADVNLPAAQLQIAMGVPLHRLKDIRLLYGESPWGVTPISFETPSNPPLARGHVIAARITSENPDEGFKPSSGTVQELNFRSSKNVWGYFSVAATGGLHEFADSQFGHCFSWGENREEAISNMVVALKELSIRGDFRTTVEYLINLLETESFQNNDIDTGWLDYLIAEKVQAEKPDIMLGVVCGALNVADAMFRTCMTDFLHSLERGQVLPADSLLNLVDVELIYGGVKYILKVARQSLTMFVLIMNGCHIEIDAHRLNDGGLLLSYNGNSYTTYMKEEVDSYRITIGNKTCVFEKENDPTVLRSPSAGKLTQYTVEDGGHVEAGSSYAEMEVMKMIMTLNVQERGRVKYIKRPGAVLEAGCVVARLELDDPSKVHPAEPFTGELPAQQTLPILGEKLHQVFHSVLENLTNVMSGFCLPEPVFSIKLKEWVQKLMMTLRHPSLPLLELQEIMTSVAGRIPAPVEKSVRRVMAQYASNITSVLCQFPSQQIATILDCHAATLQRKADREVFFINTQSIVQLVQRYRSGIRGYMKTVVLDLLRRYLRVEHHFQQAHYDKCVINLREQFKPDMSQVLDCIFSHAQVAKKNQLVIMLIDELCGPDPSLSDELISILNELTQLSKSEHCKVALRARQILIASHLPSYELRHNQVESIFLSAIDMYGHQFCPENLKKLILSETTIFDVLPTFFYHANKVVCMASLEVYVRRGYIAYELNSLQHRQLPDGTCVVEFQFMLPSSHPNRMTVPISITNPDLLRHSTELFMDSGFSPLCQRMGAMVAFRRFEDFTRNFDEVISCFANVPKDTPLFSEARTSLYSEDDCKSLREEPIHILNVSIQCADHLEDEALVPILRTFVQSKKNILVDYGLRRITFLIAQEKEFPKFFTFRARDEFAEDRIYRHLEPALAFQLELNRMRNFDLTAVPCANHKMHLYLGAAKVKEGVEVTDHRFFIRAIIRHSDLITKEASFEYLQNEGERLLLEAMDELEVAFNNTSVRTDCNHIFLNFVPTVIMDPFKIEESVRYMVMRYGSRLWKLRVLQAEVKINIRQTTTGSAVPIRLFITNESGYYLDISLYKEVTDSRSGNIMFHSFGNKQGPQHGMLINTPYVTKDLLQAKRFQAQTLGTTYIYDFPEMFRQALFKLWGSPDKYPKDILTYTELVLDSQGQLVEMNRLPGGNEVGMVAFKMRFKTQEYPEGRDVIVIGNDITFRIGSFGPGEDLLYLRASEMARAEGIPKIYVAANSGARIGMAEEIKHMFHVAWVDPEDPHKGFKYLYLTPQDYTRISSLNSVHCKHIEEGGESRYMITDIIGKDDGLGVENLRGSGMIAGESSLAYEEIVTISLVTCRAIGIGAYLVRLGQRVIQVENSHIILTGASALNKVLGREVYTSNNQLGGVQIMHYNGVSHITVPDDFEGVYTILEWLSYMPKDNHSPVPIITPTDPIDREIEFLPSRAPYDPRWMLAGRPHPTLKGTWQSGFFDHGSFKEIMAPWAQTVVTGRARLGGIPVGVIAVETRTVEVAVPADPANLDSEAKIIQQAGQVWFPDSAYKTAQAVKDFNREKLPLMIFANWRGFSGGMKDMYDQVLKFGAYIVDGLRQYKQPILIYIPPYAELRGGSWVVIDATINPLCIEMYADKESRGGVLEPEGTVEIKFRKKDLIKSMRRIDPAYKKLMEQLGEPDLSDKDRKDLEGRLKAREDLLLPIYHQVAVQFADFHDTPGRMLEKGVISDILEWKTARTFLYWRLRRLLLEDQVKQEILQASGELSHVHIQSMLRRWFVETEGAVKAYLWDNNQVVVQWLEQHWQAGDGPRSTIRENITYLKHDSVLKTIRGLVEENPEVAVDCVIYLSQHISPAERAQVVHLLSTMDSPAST

Acetyl-CoA carboxylase 1 = Acetyl-CoA carboxylase 1 (Homo sapiens, UniProt Q13085); assay: Inhibition of human ACC1 using acetyl-coA as substrate incubated for 60 mins prior to substrate addition measured after 20 mins by malachite green assay
[3] = Mean residence time in Crl:CD(SD)(IGS) rat at 1 mg/kg, iv; format: ADME, organism-based; design: dose 1 mg/kg, route intravenous; conditions: in vivo
[4] = Volume of distribution at steady state in Crl:CD(SD)(IGS) rat at 1 mg/kg, iv; format: ADME, organism-based; design: dose 1 mg/kg, route intravenous; conditions: in vivo, read-out: Vdss
[5] = Tmax in Crl:CD(SD)(IGS) rat at 3 mg/kg, po; format: ADME, organism-based; design: dose 3 mg/kg, route oral; conditions: in vivo
[6] = AUC in Crl:CD(SD)(IGS) rat at 3 mg/kg, po; format: ADME, organism-based; design: dose 3 mg/kg, route oral; conditions: plasma
[7] = Cmax in Crl:CD(SD)(IGS) rat at 3 mg/kg, po; format: ADME, organism-based; design: dose 3 mg/kg, route oral; conditions: in vivo
[8] = Oral bioavailability in Crl:CD(SD)(IGS) rat at 3 mg/kg; format: ADME, organism-based; conditions: in vivo
[9] = Total clearance in Crl:CD(SD)(IGS) rat at 1 mg/kg, iv; format: ADME, organism-based; design: dose 1 mg/kg, route intravenous; conditions: in vivo

| SMILES | logD [1] | microsomal CLint at 1 µM [2] [µL/min/mg] | IC50 (Acetyl-CoA carboxylase 2) [nM] | IC50 (Acetyl-CoA carboxylase 1) [nM] | MRT [3] [min] | Vd [4] [L/kg] | Tmax [5] [min] | AUC [6] [ng·h/mL] | Cmax [7] [ng/mL] | bioavailability [8] [%] | clearance [9] [mL/min/kg] |
| --- | --- | --- | --- | --- | --- | --- | --- | --- | --- | --- | --- |
| CCNC(=O)Nc1sc2ccccc2c1C(=O)N1CCC(N2CCC[C@@]3(C2)CC(C)(C)OC3=O)CC1 | 3.01 | 230 | – | – | – | – | – | – | – | – | – |
| CCN1C(=O)CC2(CCCN(C3CCN(C(=O)c4c(NC(N)=O)sc5ccccc45)CC3)C2)C1=O (stereo not given) | 2.2 | 64 | 23 | 350 | – | – | – | – | – | – | – |
| CNC(=O)Nc1sc2nc(C)ccc2c1C(=O)N1CCC(N2CCC[C@@]3(C2)CC(C)(C)OC3=O)CC1 | 2.18 | 90 | 4.4 | 48 | – | – | – | – | – | – | – |
| CCNC(=O)Nc1sc2nc(C)ccc2c1C(=O)N1CCC(N2CCC[C@]3(CCN(C(C)C)C3=O)C2)CC1 | 2.43 | 45 | 9 | 93 | – | – | – | – | – | – | – |
| CNC(=O)Nc1sc2nc(C)ccc2c1C(=O)N1CCC(N2CCC[C@]3(CC(=O)N(C(C)C)C3=O)C2)CC1 | 2.51 | 33 | 8.5 | 160 | 78 | 1.3 | 30 | 1400 | 440 | 45 | 15.8 |
| CCNC(=O)Nc1sc2nc(C)ccc2c1C(=O)N1CCC(N2CCCC3(C2)OC(=O)N(C(C)C)C3=O)CC1 (stereo not given) | 2.39 | 38 | 15 | 160 | – | – | – | – | – | – | – |
| CCNC(=O)Nc1sc2nc(C)ccc2c1C(=O)N1CCC(N2CCCC3(C2)N=C(C)N(C(C)C)C3=O)CC1 (stereo not given) | 2.27 | 47 | 15 | 76 | – | – | – | – | – | – | – |
| CCNC(=O)Nc1sc2ccccc2c1C(=O)N1CCC(N2CCCC3(C2)CC(C)(C)OC3=O)CC1 (racemic) | 3.01 | 180 | – | – | – | – | – | – | – | – | – |
| CCNC(=O)Nc1sc2ccccc2c1C(=O)N1CCC(N2CCCC3(CC(=O)N(CC)C3=O)C2)CC1 (racemic) | – | 130 | 32 | 230 | – | – | – | – | – | – | – |
| CCN1C(=O)OC2(CCCN(C3CCN(C(=O)c4c(NC(N)=O)sc5ccccc45)CC3)C2)C1=O (racemic) | 1.85 | 41 | – | – | – | – | – | – | – | – | – |
| CCNC(=O)Nc1sc2ccccc2c1C(=O)N1CCC(N2CCCC3(C2)OC(=O)N(CC)C3=O)CC1 (racemic) | 2.47 | 98 | 40 | 190 | – | – | – | – | – | – | – |
| CCNC(=O)Nc1sc2ccccc2c1C(=O)N1CCC(N2CCCC3(C2)NC(=O)N(CC)C3=O)CC1 (racemic) | 2.44 | 110 | 22 | 280 | – | – | – | – | – | – | – |
| CCNC(=O)Nc1sc2ccccc2c1C(=O)N1CCC(N2CCCC3(C2)C(=O)N(CC)C(=O)N3C)CC1 (racemic) | 2.79 | 190 | 51 | 360 | – | – | – | – | – | – | – |
| CCN1C(=O)C2(CCCN(C3CCN(C(=O)c4c(NC(N)=O)sc5ccccc45)CC3)C2)N=C1C (racemic) | 1.77 | 60 | 75 | 300 | – | – | – | – | – | – | – |
| CCC1=NC2(CCCN(C3CCN(C(=O)c4c(NC(N)=O)sc5ccccc45)CC3)C2)C(=O)N1CC (racemic) | 2.09 | 150 | 43 | 410 | – | – | – | – | – | – | – |
| CCN1C(=O)C2(CCCN(C3CCN(C(=O)c4c(NC(N)=O)sc5ccccc45)CC3)C2)N=C1C(C)C (racemic) | 2.43 | 230 | 17 | 80 | – | – | – | – | – | – | – |
| CCNC(=O)Nc1sc2ccccc2c1C(=O)N1CCC(N2CCCC3(CCNC3=O)C2)CC1 (racemic) | 2.06 | 35 | 79 | 650 | – | – | – | – | – | – | – |
| CCNC(=O)Nc1sc2ccccc2c1C(=O)N1CCC(N2CCCC3(CCN(C)C3=O)C2)CC1 (racemic) | 2.23 | 45 | 64 | 510 | – | – | – | – | – | – | – |
| CCNC(=O)Nc1sc2ccccc2c1C(=O)N1CCC(N2CCCC3(CCN(CC)C3=O)C2)CC1 (racemic) | 2.62 | 71 | 33 | 350 | – | – | – | – | – | – | – |
| CNC(=O)Nc1sc2ccccc2c1C(=O)N1CCC(N2CCCC3(CCN(C(C)C)C3=O)C2)CC1 (racemic) | 2.61 | 66 | 18 | 120 | – | – | – | – | – | – | – |
| CCNC(=O)Nc1sc2ncccc2c1C(=O)N1CCC(N2CCCC3(C2)CC(C)(C)OC3=O)CC1 (racemic) | 2.08 | 110 | 16 | 110 | – | – | – | – | – | – | – |
| CCNC(=O)Nc1sc2nc(C)ccc2c1C(=O)N1CCC(N2CCCC3(C2)CC(C)(C)OC3=O)CC1 (racemic) | 2.49 | 79 | 14 | 78 | – | – | – | – | – | – | – |
| CCNC(=O)Nc1sc2cccnc2c1C(=O)N1CCC(N2CCCC3(C2)CC(C)(C)OC3=O)CC1 (racemic) | 2.45 | 120 | 27 | 150 | – | – | – | – | – | – | – |
| CCNC(=O)Nc1sc2nccnc2c1C(=O)N1CCC(N2CCCC3(C2)CC(C)(C)OC3=O)CC1 (racemic) | 2.32 | 110 | 37 | 150 | – | – | – | – | – | – | – |
| CCNC(=O)Nc1sc2nc(C)ccc2c1C(=O)N1CCC(N2CCCC3(C2)NC(=O)N(C(C)C)C3=O)CC1 (racemic) | 2.39 | 26 | 17 | 150 | – | – | – | – | – | – | – |
